Source: patent publication US9309284B2 (priority 2012, dated 2016)

Tests used:
cells = test: cell cytotoxicity (microscopy and CytoTox 96 assay); assay type: cell-based
Excerpt: Cell Cytotoxicity. The nonspecific cytotoxic effects of each compound on cells were monitored by observation under a microscopy and CytoTox 96 Non-radioactive cytotoxicity assay (Promega, Madison, Wis.).

NV 3CL protease = NV 3CL protease (Norovirus, UniProt Q83883); test: biochemical; design: species or system norovirus strain Norwalk
Chain of NV 3CL protease (Q83883 1101-1281 limits assumed): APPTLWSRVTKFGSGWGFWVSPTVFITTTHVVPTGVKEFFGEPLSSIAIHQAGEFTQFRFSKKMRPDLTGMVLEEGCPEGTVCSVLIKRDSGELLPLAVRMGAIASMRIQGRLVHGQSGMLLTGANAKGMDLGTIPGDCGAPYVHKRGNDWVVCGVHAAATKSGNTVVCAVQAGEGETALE

[1] = system: NV in replicon-harboring cells; test: cell-based norovirus replicon system (NV replicon-harboring cells, HG23); conditions: Norwalk virus, α-hydroxyphosphonates, mixtures of epimers
SARS-CoV 3CL protease = SARS-CoV 3CL protease (Severe acute respiratory syndrome coronavirus, UniProt P0C6X7); test: biochemical
EV71 3C protease = EV71 3C protease (Human enterovirus 71, UniProt Q66478); test: biochemical
Chain of EV71 3C protease (Q66478 1549-1731 limits assumed): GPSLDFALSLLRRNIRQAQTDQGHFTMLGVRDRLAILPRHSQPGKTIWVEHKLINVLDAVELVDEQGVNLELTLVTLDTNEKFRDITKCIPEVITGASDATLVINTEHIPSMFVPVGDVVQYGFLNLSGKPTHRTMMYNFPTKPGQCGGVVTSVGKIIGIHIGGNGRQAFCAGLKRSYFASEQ

Row | SMILES | toxicity to cells (no toxicity up to) (cells) [µM] | IC50 (NV 3CL protease) [nM] | EC50 [1] [µM] | IC50 (SARS-CoV 3CL protease) [nM] | IC50 (EV71 3C protease) [nM]
1 | O=CC(CC1CCNC1=O)NC(=O)C(CC1CCCCC1)N1C(=O)CCC(NC(=O)OCc2ccccc2)C1=O (centres unmarked) [Compound 5, Benzyl(1-(3-cyclohexyl-1-oxo-1-((1-oxo-3-(2-oxopyrrolidin-3-yl)propan-2-yl)amino)propan-2-yl)-2,6-dioxopperidin-3-yl)carbamate] | > 150 |  |  |  | 
2 | COP(=O)(OC)C(O)[C@H](CC1CCNC1=O)NC(=O)[C@H](CC(C)C)NC(=O)OCc1ccccc1 (mixture of isomers) [Compound 7b] |  | > 50000 | 3.5 |  | 
3 | CC(C)C[C@@H]1NC(=O)[C@@H](NC(=O)OCc2ccccc2)Cc2cn(nn2)CCCNC(=O)CC[C@@H](C=O)NC1=O [Compound 13, Benzyl(9-formyl-12-isobutyl-6,11,14-trioxo-1,5,10,13,18,19-hexaazabicyclo[15.2.1]icosa-17(20),18-dien-15-yl)carbamate] |  | 5100 |  | 15500 | 1800
4 | COP(=O)(OC)C(O)[C@H](CC1CCNC1=O)NC(=O)[C@H](CC1CCCCC1)NC(=O)OCc1ccccc1 (mixture of isomers) [Compound 7e] |  | > 50000 | 2.8 |  | 
5 | CCOP(=O)(OCC)C(O)[C@H](CC1CCNC1=O)NC(=O)[C@H](CC(C)C)NC(=O)OCc1ccccc1 (mixture of isomers) [Compound 7a] |  | > 50000 | 1.1 |  | 
6 | O=C(N[C@@H](CC1CCCCC1)C(=O)N[C@@H](CC1CCNC1=O)C(O)P(=O)(OCC(F)(F)F)OCC(F)(F)F)OCc1ccccc1 (mixture of isomers) [Compound 7g] |  | > 50000 | 0.25 |  | 
7 | CCCCOP(=O)(OCCCC)C(O)[C@H](CC1CCNC1=O)NC(=O)[C@H](CC1CCCCC1)NC(=O)OCc1ccccc1 (mixture of isomers) [Compound 7f] |  | > 50000 | 0.5 |  | 
8 | CC(C)C[C@H](NC(=O)OCc1ccccc1)C(=O)N[C@@H](CC1CCNC1=O)C(O)P(=O)(O)O (mixture of isomers) [Compound 7c] |  | > 50000 | 0.8 |  | 
9 | CCOP(=O)(OCC)C(O)[C@H](CC1CCNC1=O)NC(=O)[C@H](CC1CCCCC1)NC(=O)OCc1ccccc1 (mixture of isomers) [Compound 7d] |  | > 50000 | 0.25 |  | 
10 | O=C(N[C@@H](CC1CCCCC1)C(=O)N[C@@H](CC1CCNC1=O)C(O)P(=O)(OCc1ccccc1)OCc1ccccc1)OCc1ccccc1 (mixture of isomers) [Compound 7h] |  | > 50000 | 0.6 |  | 
